Results reported in PMC6271011, “Synthesis, Leishmanicidal and Cytotoxic Activity of Triclosan-Chalcone, Triclosan-Chromone and Triclosan-Coumarin Hybrids” (Molecules, 2014).
Values joined by “and” are separate entries in the source; they are usually repeats but may differ in a detail not shown here. Identical values can stand only once. Like-named read-outs stand apart in the source and are kept apart here.

Experiments:
[1] = in vitro; details: human
Procedure: (§1) The cytotoxic activity of the compounds was assessed based on the viability of the human promonocytic cell line U937 (ATCC CRL-1593.2^TM) evaluated by the MTT (3-(4,5-dimethylthiazol-2-yl)-2,5-diphenyltetrazolium bromide) assay. In brief, cells were grown in 96-well cell-culture dishes at a concentration of 100,000 cells/mL in RPMI-1640 supplemented with 10% FBS and the corresponding concentrations of the compounds, starting at 200 µg/mL in duplicate. The cells were incubated at 37 °C with 5% CO2 for 72 h in the presence of the compounds, and then the effect was determined using the MTT assay, incubating at 37 °C for 3 h. The effect of the compounds was determined by measuring the activity of the mitochondrial dehydrogenase by adding 10 µL/well of MTT solution (0.5 mg/mL) and incubating at 37 °C for 3 h. The reaction was stopped by adding a 50% isopropanol solution with 10% sodium dodecyl sulfate for 30 min. Cell viability was determined based on the quantity of formazan produced, according to the optical density (O.D) obtained at 570 nm in a Bio-Rad (Hercules, CA, USA) ELISA instrument. Cultured cells in the absence of extracts were used as viability controls, while meglumine antimoniate and amphotericin B were used as cytotoxicity controls. Assays were performed twice with three replicates per each concentration tested.
(§2) Cytotoxicity was determined according to viability and mortality percentages obtained for each isolated experiment (compounds, amphotericin B, meglumine antimoniate and culture medium alone). The results were expressed as 50 lethal concentrations (LC50), that corresponds to the concentration necessary to eliminate 50% of cells, calculated by Probit analysis. Percentage of viability was calculated by Equation (1), where the optical density (O.D) of control, corresponds to 100% of viability. In turn, mortality percentage corresponds to 100% viability: % Viability = (O.D Exposed cells)/(O.D Control cells) × 100 (1)
(§3) The degree of toxicity was established according to the LC50 value using the following scale: highly toxic: LC50 < 50 μg/mL, toxic: LC50 > 50 to < 100 μg/mL; moderately toxic: LC50 > 100 to < 200 μg/mL and potentially non-toxic: LC50 > 200 μg/mL.

[2] = system: intracellular amastigotes of L. (V) panamensis; assay: Leishmanicidal activity against intracellular amastigotes (GFP, flow cytometry, 72 h); assay type: cell-based, Leishmania (Viannia) panamensis; details: for EC50: intracellular amastigotes in U-937 cells; for inhibition at 20 µg/mL: read-out: Leishmanicidal activity % Inhibition
[3] = system: axenic and intracellular amastigotes of Leishmania panamensis; parameters: method as in doi:10.1007/s00044-011-9886-8; details: cited from earlier work
[4] = system: intracellular amastigotes of L. (V) panamensis; assay: Leishmanicidal activity against intracellular amastigotes (GFP, flow cytometry, 72 h); assay type: cell-based, Leishmania (Viannia) panamensis; details: for SI (Selectivity Index = LC50/EC50): LC50 U-937 / EC50 intracellular amastigotes; for Leishmanicidal activity % Inhibition: intracellular amastigotes
Procedure: The leishmanicidal activity of compounds was evaluated on intracellular amastigotes of L. panamensis transfected with the green fluorescent protein gene (MHOM/CO/87/UA140pIR-GFP). Effect of each compound was determined according to the inhibition of the infection evidenced by both decrease of the infected cells and decrease of intracellular parasite load. Briefly, U-937 human cells at a concentration of 3 × 10^5 cells/mL in RPMI 1640 and 0.1 μg/mL of PMA (phorbol-12-myristate-13-acetate) were infected with promastigotes in stationary phase growth in a 15:1 parasites per cell ratio and incubated at 34 °C and 5% CO2 for 3 h. Cells were washed two times with phosphate buffer solution (PBS) to eliminate not internalized parasites. Fresh RPMI 1640 1 mL was added and cells were incubated during 24 h to guarantee multiplication of intracellular parasites.
After 24 h of infection, the culture medium was replaced by fresh culture medium containing each compound at concentrations of 20 μg/mL. After 72 h, the inhibition of the infection progress was determined. Cells were removed from the bottom plate with a trypsin/EDTA (250 mg) solution. Recovered cells were centrifuged at 1100 rpm during 10 min at 4 °C, the supernatant was discarded and cells were washed with 1 mL of cold PBS and centrifuged at 1100 rpm during 10 min at 4 °C. Supernatant was discarded and cells were suspended in 500 μL of PBS and analyzed by flow cytometry (FC 500MPL, Cytomics, Brea, CA, USA) counting 20.000 events. All determinations for each compound and standards were carried out in triplicate, in two isolated experiments. Activity of tested compounds was carried out in parallel with infection progress in culture medium alone and in culture medium with amphotericin B 0.05 μg/mL and meglumine antimoniate (10.0 μg/mL) as control drugs. […] The infected cells were exposed against each concentration of synthesized compounds during 72 h, then, cells were removed and tested by flow cytometry as described before.
Antileishmanial activity was determined according to percentage of infected cells and parasite load obtained for each experimental condition by the cytometer. Percentage of infected cells was determined as the number of positive events by double fluorescence (green for parasites and red for cells) using dotplot analysis. On the other hand, the parasitic load was determined by analysis of mean fluorescence intensity (MFI).
The parasitemia inhibition was calculated by Equation (2), where the MFI of control, corresponds to 100% of parasitemia. In turn, inhibition percentage corresponds to 100% Parasitemia.
The selectivity index (SI), was calculated by dividing the cytotoxic activity and the leishmanicidal activity using the following formula: SI = CL50/CE50.

[5] = system: L. major; parameters: method as in PMID 15558191; details: against L. major; read-out: 50% inhibitory concentration (IC50), growth inhibition; cited from earlier work
[6] = system: human promonocytic cell line U937; assay: in vitro; details: U-937 cells, MTT, 72 h, Lethal Concentration 50
Procedure: as §1, §2, §3

[7] = at 20 µg/mL, intracellular amastigotes

Compound	CC50 at 72 h [1]	EC50 [2]	inhibition at 20 µg/mL [2, 7]	SI (Selectivity Index = LC50/EC50) [4]	further results
Cc1cc(=O)oc2cc(OCCCCCOc3cc(Cl)ccc3Oc3ccc(Cl)cc3Cl)ccc12 [Compound 18, 7-({5-[5-Chloro-2-(2,4-dichlorophenoxy)phenoxy]pentyl}oxy)-4-methyl-2H-chromen-2-one]	> 200 µg/mL and > 376 µM	–	–	–	–
C[C@@H]1[C@H](O)[C@@H](C)/C=C/C=C/C=C/C=C/C=C/C=C/C=C/[C@H](O[C@@H]2O[C@H](C)[C@@H](O)[C@H](N)[C@@H]2O)C[C@@H]2O[C@](O)(C[C@@H](O)C[C@@H](O)[C@H](O)CC[C@@H](O)C[C@@H](O)CC(=O)O[C@H]1C)C[C@H](O)[C@H]2C(=O)O [Amphotericin B, reference compound]	42.1 µg/mL and 45.6 µM	0.06 µg/mL and 100 nM	–	–	inhibition at 0.05 µg/mL ([2]; Dose employed: 0.05 µg/mL, intracellular amastigotes): 69.1 ± 1.3%
O=c1ccoc2cc(O)ccc12 [7-Hydroxychromone (20), 7-hydroxychromone, reference compound]	–	–	14.8 ± 0.9%	–	–
Oc1cc(Cl)ccc1Oc1ccc(Cl)cc1Cl [Triclosan]	–	–	–	1.3	effective concentration (EC50) [3]: < 24 µg/mL; inhibition at 20 µg/mL [2]: 61.8 ± 5.5%; EC50 ([4]; U-937, 72 h, read-out: Leishmanicidal activity EC50): 18.3 µg/mL and 63.2 µM
Cc1cc(=O)oc2cc(OCCCCOc3cc(Cl)ccc3Oc3ccc(Cl)cc3Cl)ccc12 [Compound 17, 7-{4-[5-Chloro-2-(2,4-dichlorophenoxy)phenoxy]butoxy}-4-methyl-2H-chromen-2-one]	> 200 µg/mL and > 386 µM	27.5 µg/mL and 53.1 µM	57.1 ± 11.5%	>7.3	–
O=c1ccoc2cc(OCCCCCOc3cc(Cl)ccc3Oc3ccc(Cl)cc3Cl)ccc12 [Compound 27, 7-({5-[5-Chloro-2-(2,4-dichlorophenoxy)phenoxy]pentyl}oxy)-4H-chromen-4-one]	25.8 µg/mL and 49.8 µM	16 µg/mL and 30.9 µM	75.5 ± 1.5%	1.6	–
Cc1cc(=O)oc2cc(OCCCOc3cc(Cl)ccc3Oc3ccc(Cl)cc3Cl)ccc12 [Compound 16, 7-{3-[5-Chloro-2-(2,4-dichlorophenoxy)phenoxy]propoxy}-4-methyl-2H-chromen-2-one]	> 200 µg/mL and > 397 µM	–	< 50%	–	Leishmanicidal activity % Inhibition ([4]; at 20 µg/mL, 72 h): 34.0 ± 0.3%
COc1ccc(/C=C/C(=O)c2ccc(OCCCCCOc3cc(Cl)ccc3Oc3ccc(Cl)cc3Cl)cc2)cc1OC [Compound 9, (2E)-1-[4-({5-[5-Chloro-2-(2,4-dichlorophenoxy)phenoxy]pentyl}oxy)phenyl]-3-(3,4-imethoxyphenyl) prop-2-en-1-one]	> 200 µg/mL and > 311 µM	13.5 µg/mL and 21.1 µM	69.5 ± 8.6%	>14.8	–
COc1ccc(/C=C/C(=O)c2ccc(OCCCOc3cc(Cl)ccc3Oc3ccc(Cl)cc3Cl)cc2)cc1OC [Compound 7, (2E)-1-(4-{3-[5-Chloro-2-(2,4-dichlorophenoxy)phenoxy]propoxy}phenyl)-3-(3,4-dimethoxyphenyl) prop-2-en-1-one]	> 200 µg/mL and > 327 µM	9.4 µg/mL and 15.4 µM	67.4 ± 17.2%	>21.3	–
CC(C)=CCC/C(C)=C/COc1ccc2ccc(=O)oc2c1 [Aurapten, 7-geranyloxycoumarin]	–	–	–	–	IC50 [5]: 30 µM
3,4-dimethoxy-4'-hydroxychalcone [3,4-Dimethoxy-4'-hydroxychalcone (6), reference compound]	–	–	–	–	Cytotoxicity LC50 [6]: 13.9 ± 1.4 µg/mL; CC50 ([6]; read-out: Cytotoxicity LC50): 48.9 µM; Leishmanicidal activity % Inhibition ([4]; at 20 µg/mL, 72 h): 52.4 ± 6.5%; Leishmanicidal activity EC50 ([4]; intracellular amastigotes in U-937 cells, 72 h): 20.03 ± 1.4 µg/mL; EC50 ([4]; intracellular amastigotes in U-937 cells, 72 h, read-out: Leishmanicidal activity EC50 (converted)): 70.5 µM
O=c1ccoc2cc(OCCCCOc3cc(Cl)ccc3Oc3ccc(Cl)cc3Cl)ccc12 [Compound 26, 7-{4-[5-Chloro-2-(2,4-dichlorophenoxy)phenoxy]butoxy}-4H-chromen-4-one]	15.8 µg/mL and 31.3 µM	7.5 µg/mL and 14.9 µM	91 ± 9.6%	2.1	–
meglumine antimoniate [Sb(V), reference compound]	–	–	–	–	Cytotoxicity LC50 [6]: 495.9 ± 55.6 µg/mL; Leishmanicidal activity % Inhibition ([4]; Dose employed: 10 µg/mL, 72 h): 79.4 ± 2.1 ^h %
Cc1cc(=O)oc2cc(OCCCCCCCCOc3cc(Cl)ccc3Oc3ccc(Cl)cc3Cl)ccc12 [Compound 19, 7-({8-[5-Chloro-2-(2,4-dichlorophenoxy)phenoxy]octyl}oxy)-4-methyl-2H-chromen-2-one]	> 200 µg/mL and > 348 µM	–	–	–	–
O=c1ccoc2cc(OCCCOc3cc(Cl)ccc3Oc3ccc(Cl)cc3Cl)ccc12 [Compound 25, 7-{3-[5-Chloro-2-(2,4-dichlorophenoxy)phenoxy]propoxy}-4H-chromen-4-one]	6.4 µg/mL and 13.1 µM	2.7 µg/mL and 5.5 µM	94.4 ± 2.9%	2.4	–
COc1ccc(/C=C/C(=O)c2ccc(OCCCCCCCCOc3cc(Cl)ccc3Oc3ccc(Cl)cc3Cl)cc2)cc1OC [Compound 10, (2E)-1-[4-({8-[5-Chloro-2-(2,4-dichlorophenoxy)phenoxy]octyl}oxy)phenyl]-3-(3,4-dimethoxyphenyl) prop-2-en-1-one]	> 200 µg/mL and > 293 µM	–	–	–	–
O=c1ccoc2cc(OCCCCCCCCOc3cc(Cl)ccc3Oc3ccc(Cl)cc3Cl)ccc12 [Compound 28, 7-({8-[5-Chloro-2-(2,4-dichlorophenoxy)phenoxy]octyl}oxy)-4H-chromen-4-one]	80 µg/mL and 143 µM	–	28.4 ± 2.1%	–	–
COc1ccc(/C=C/C(=O)c2ccc(OCCCCOc3cc(Cl)ccc3Oc3ccc(Cl)cc3Cl)cc2)cc1OC [Compound 8, (2E)-1-(4-{4-[5-Chloro-2-(2,4-dichlorophenoxy)phenoxy]butoxy}phenyl)-3-(3,4-dimethoxyphenyl) prop-2-en-1-one]	> 200 µg/mL and > 319 µM	10.2 µg/mL and 16.3 µM	67.8 ± 19%	>19.6	–
Cc1cc(=O)oc2cc(O)ccc12 [7-Hydroxy-4-methylcoumarin (11), 7-hydroxy-4-methylcoumarin, reference compound]	–	–	15.3 ± 0.1%	–	–
